Assay: High fat diet induced obesity (DIO) mouse model
Format: in vivo, C57CL/6J mice
Design: Epididymal Fat weight / Retroperitoneal Fat weight / Total Fat (sum of the three fat deposits) / Retroperitoneal Fat / Total Fat / Epididymal Fat, absolute weight / Retroperitoneal Fat, absolute weight: unit not given here
Settings: DIO mice; for Weight (total body weight) / Total Weight: in g (unit assumed); for Food Efficiency Ratio (FER): FER = body weight gain (g/day)/food intake (g/day)
Procedure: C57CL/6J mice aged 4-6 weeks (Korea Research Institute of Bioscience & Biotechnology, Ohchang, Korea) were housed in Polycarbonate cages (five mice per cage) in a room with a 12 hr:12 hr light-dark cycle and an ambient temperature of 24° C. All the mice were fed a commercial chow diet for 1 week after arrival in the animal facility. Mice were then divided into normal and obesity groups and fed with normal diet (ND) and high fat diets (HFD) respectively. The HFD group was divided into multiple treatment groups: a high fat diet vehicle group (HFD), an orlistat (purchased as OTC drug Alli®) positive control treatment group (ORI, 40 mg/kg of animal weight, 2 times/day) and optionally a sibutramine positive control treatment group (10 mg/kg, 1 time/day). The HFD contained 340 g of fat/kg of HFD (310 g lard plus 30 g soybean oil; Harlan Laboratories, USA). The HFD was formulated to provide 60% of the total energy generated by the diet from fat by replacing carbohydrate energy with lard and soybean oil, whereas the normal diet (ND) group was fed a diet providing only 18% of the total diet energy from fat(Harlan Laboratories, USA).
Body weight was measured once each week and feed intake was measured twice per week. At the end of the experimental period, following a 12 hr. fasting period, the animals were anesthetized with ether, and blood was drawn from the abdominal vein. Liver and kidney and adipose tissues (epididymal, retroperitoneal, perirenal adipose tissues) were removed from each animal, rinsed with physiological saline, and weighed. Serum concentrations of glucose, total cholesterol, triglycerides, and LDL-cholesterol were determined using automatic analyzer (INTEGRA 400, Roche, Germany). Statistical significance of test results was measured using the Student's t-test.

[1] = oral, week 3, ORI 40 mg/kg, G1 700 mg/kg (Morus:Rosemary 2:5)
[2] = oral, week 3, ORI 40 mg/kg, G1 1200 mg/kg (Morus:Yerba Mate 1:5)
[3] = oral, week 4, ORI 40 mg/kg, G1 700 mg/kg (Morus:Rosemary 2:5)
[4] = oral, week 4, ORI 40 mg/kg, G1 1200 mg/kg (Morus:Yerba Mate 1:5)
[5] = oral, week 5, ORI 40 mg/kg, G1 700 mg/kg (Morus:Rosemary 2:5)
[6] = oral, week 5, ORI 40 mg/kg, G1 1200 mg/kg (Morus:Yerba Mate 1:5)
[7] = oral, week 6, ORI 40 mg/kg, G1 700 mg/kg (Morus:Rosemary 2:5)
[8] = oral, week 6, ORI 40 mg/kg, G1 1200 mg/kg (Morus:Yerba Mate 1:5)
[9] = oral, week 7, ORI 40 mg/kg, G1 700 mg/kg (Morus:Rosemary 2:5)
[10] = oral, week 7, ORI 40 mg/kg, G1 1200 mg/kg (Morus:Yerba Mate 1:5)
[11] = seven weeks, ORI 40 mg/kg, G1 300 mg/kg (Morus:Magnolia 2:1)
[12] = seven weeks, ORI 40 mg/kg, G1 1200 mg/kg (Morus:Yerba Mate 1:5)
[13] = week 1, G1-G4 1000 mg/kg oral gavage two times per day
[14] = week 2, G1-G4 1000 mg/kg oral gavage two times per day
[15] = week 3, G1-G4 1000 mg/kg oral gavage two times per day
[16] = week 4, G1-G4 1000 mg/kg oral gavage two times per day
[17] = week 5, G1-G4 1000 mg/kg oral gavage two times per day
[18] = week 6, G1-G4 1000 mg/kg oral gavage two times per day
[19] = week 7, G1-G4 1000 mg/kg oral gavage two times per day
[20] = G1-G4 1000 mg/kg oral gavage two times per day

In the case of `CCCCCCCCCCC[C@@H](C[C@@H]1OC(=O)[C@H]1CCCCCC)OC(=O)[C@H](CC(C)C)NC=O` [ORI, orlistat], the “Body Weight Gain” value [1] is reported as −5.91, the “Weight (total body weight)” value [1] is reported as 36.48 and the “Weight Gain” value [2] is reported as −3.34. The “Total Weight” value [2] was 35.12, the “Body Weight Gain” value (oral, week 4, ORI 40 mg/kg, G1 300 mg/kg (Morus:Magnolia 2:1)) was −2.61 and the “Body Weight Gain” value [3] was −3.82. For the same molecule, the “Weight (total body weight)” value [3] was 38.57, the “Weight Gain” value [4] was −2.61 and the “Total Weight” value [4] was 35.84. The “Body Weight Gain” value (oral, week 5, ORI 40 mg/kg, G1 300 mg/kg (Morus:Magnolia 2:1)) was −2.04, the “Body Weight Gain” value [5] was −2.33 and the “Weight (total body weight)” value [5] was 40.07. The “Weight Gain” value [6] was −2.04, the “Total Weight” value [6] was 36.41 and the “Body Weight Gain” value (oral, week 6, ORI 40 mg/kg, G1 300 mg/kg (Morus:Magnolia 2:1)) was −1.65. For the same molecule, the “Body Weight Gain” value [7] was −1.44, the “Weight (total body weight)” value [7] was 40.95 and the “Weight Gain” value [8] was −1.65. The “Total Weight” value [8] was 36.80, the “Body Weight Gain” value (oral, week 7, ORI 40 mg/kg, G1 300 mg/kg (Morus:Magnolia 2:1)) was −0.07 and the “Body Weight Gain” value [9] was 0.60. For the same molecule, the “Weight (total body weight)” value [9] was 42.99, the “Weight Gain” value [10] was −0.07 and the “Total Weight” value [10] was 38.38. The Absolute Liver Weight [11] was 1.05 g, the “Body Weight Gain” value [11] was -0.002 g/day and the “Epididymal Fat weight” value [11] was 1.92. The “Food Intake” value [11] was 3.961 g/day, the “Perirenal Fat weight” value [11] was 0.21 and the “Retroperitoneal Fat weight” value [11] was 0.55. For the same molecule, the “Total Fat (sum of the three fat deposits)” value [11] was 2.68, the “Food Efficiency Ratio (FER)” value (seven weeks, ORI 40 mg/kg, G1 300 mg/kg) was 0.000 and the “Food Intake” value [12] was 3.961 g/day. The “Retroperitoneal Fat” value [12] was 0.55, the “Weight Gain” value [12] was -0.002 g/day and the “Food Efficiency Ratio (FER)” value (seven weeks, ORI 40 mg/kg, G1 1200 mg/kg) was 0.000. For the same molecule, the “Animal Body Weight, week 0” value (week 0 (baseline), G1-G4 1000 mg/kg oral gavage two times per day) was 41.44 gram, the “Animal Body Weight, week 1” value [13] was 40.17 gram and the “Weight Gain, week 1” value [13] was −3.97 gram. The “Animal Body Weight, week 2” value [14] was 36.20 gram, the “Weight Gain, week 2” value [14] was −5.37 gram and the “Animal Body Weight, week 3” value [15] was 34.80 gram. For the same molecule, the “Weight Gain, week 3” value [15] was −4.08 gram, the “Animal Body Weight, week 4” value [16] was 36.09 gram and the “Weight Gain, week 4” value [16] was −3.11 gram. For the same molecule, the “Animal Body Weight, week 5” value [17] was 37.06 gram, the “Weight Gain, week 5” value [17] was −1.26 gram and the “Animal Body Weight, week 6” value [18] was 38.91 gram. For the same molecule, the “Weight Gain, week 6” value [18] was 0.05 gram, the “Animal Body Weight, week 7” value [19] was 40.22 gram and the “Weight Gain, week 7” value [19] was 0.72 gram. For the same molecule, the “Weight Gain 2-week” value (2-week, Compositions 1, 2 1300 mg/kg/day, 3, 9 1700 mg/kg/day, orlistat 40 mg/kg 2 times/day, sibutramine 10 mg/kg 1 time/day) was −5.07, the “Average Feed Intake 2-week” value (2-week, doses as in Example 76) was 2.79 and the “Food Efficiency Ratio (FER) 2 weeks” value (2 weeks, Mean, Weight Gain (g/day)/Feed Intake (g/day)) was −0.223. The “Weight Gain 7-week” value (7-week, Compositions 1, 2 1300 mg/kg/day, 3, 9 1700 mg/kg/day, orlistat 40 mg/kg 2 times/day, sibutramine 10 mg/kg 1 time/day) was 0.56, the “Average Feed Intake 7-week” value (7-week, doses as in Example 76) was 3.09 and the “Food Efficiency Ratio (FER) 7 weeks” value (7 weeks, Mean, Weight Gain (g/day)/Feed Intake (g/day)) was 0.005. The “FER (Food efficiency ratio)” value (Body weight gain (g/day)/Food intake (g/day), G1 = 800 mg/kg orally twice a day) was −0.001, the “FER (Food efficiency ratio)” value (Body weight gain (g/day)/Food intake (g/day), G1 = 1,100 mg/kg orally twice a day) was −0.001 and the “FER (Food efficiency ratio)” value (Body weight gain (g/day)/Food intake (g/day), G1 = 1,200 mg/kg orally twice a day) was −0.001. For the same molecule, the “FER (Food efficiency ratio)” value (FER = Weight Gain (g/day)/Food intake (g/day)) was 0.006, the “Food Efficiency Ratio (FER)” value (SIB 10 mg/kg, ORI 40 mg/kg, Mutamba extract 32 (G1) 1000 mg/kg, mean) was 0.013 and the “Food Efficiency Ratio (FER)” value (SIB 10 mg/kg, ORI 40 mg/kg, Mutamba extract 33-2 G1 1000 mg/kg, mean) was 0.034. For the same molecule, the Absolute Organ Weight, PeriRenal Fat [20] was 0.388 g and the Absolute Organ Weight, Retroperitoneal Fat [20] was 0.567 g.

Reference: patent publication US20240024403A1, “Compositions and Methods for Managing Weight” (Unigen, Inc., priority 2012, published 2024)
